Structures can show the parent of a compound that is named as a salt.
What was measured:
[1] = Headspace SPME GC/MS malodor removal by aqueous Composition 3 (butylamine); settings: 0.5 wt. % activated alkene in Composition 3, pH 7, no catalyst; 2 hours room temperature, 30 minutes 35° C.; numbers less than 1 = reduced malodor
Protocol: (§1) All activated alkenes are present in Composition 3 in an amount of 0.5 wt. %, except PEG 400 Dimethylacrylate which is present in Composition 3 in amount of 1.0 wt. %.
(§2) In addition, a Control composition is prepared according to the composition in Table 3, except the activated alkene is omitted. Composition 3 with each activated alkene and the Control composition are then tested for malodor removal performance as described below.
(§3) n-Butanethiol and di-n-propoyl sulfide were chosen as chemical surrogates for sulfur-containing odors such as onion, garlic, sewage, etc. n-Butylamine was used as a representative for amine-containing odors such as fish, pet urine, etc.
(§4) 5 ml of Composition 3 and the Control composition are placed into a separate GC-MS vial and each spiked with 5 microliters of butanthiol or butylamine. The compositions are first equilibrated at room temperature for 2 hours, then incubated at 35° C. for 30 minutes. The headspace of each vial is finally sampled using a polydimethyl siloxane (“PDMS”)/SPME fiber and analyzed by GC/MS. The head space concentrations of odor molecules are measured and the data are normalized to the Control composition.
(§5) Numbers less than 1 denote reduced levels of malodor molecules present in the headspace of Composition 3 relative to the Control composition. The reduced malodor level is attributed to high malodor control efficacy of Composition 3.

[2] = Headspace SPME GC/MS malodor removal by aqueous Composition 3 (butanethiol); settings: 0.5 wt. % activated alkene in Composition 3, pH 7, no catalyst; 2 hours room temperature, 30 minutes 35° C.; numbers less than 1 = reduced malodor
Protocol: as §1, §2, §3, §4, §5

[3] = Headspace SPME GC/MS butanethiol removal by aqueous Composition 5 (activated alkene and catalyst); settings: for Butanethiol head space concentration normalized to Control, catalyst DBU / Butanethiol head space concentration normalized to Control, catalyst n-hexyl amine / Butanethiol head space concentration normalized to Control, catalyst n-octylamine: Composition 5, 0.5 wt. % activated alkene + catalyst, pH 7; for Butanethiol head space concentration normalized to Control, catalyst DBU: DBU 1:150 molar ratio of catalyst:alkene; for Butanethiol head space concentration normalized to Control, catalyst n-hexyl amine: n-hexyl amine 1:15 molar ratio of catalyst:alkene; for Butanethiol head space concentration normalized to Control, catalyst n-octylamine: n-octylamine 1:15 molar ratio of catalyst:alkene; for Butanethiol head space concentration normalized to Control, No catalyst: Composition 5, 0.5 wt. % activated alkene, pH 7, no catalyst
Protocol: [Worded in the source for another target; this target is reported under the same test.] as §4

[4] = Vapor-phase butanethiol removal, static headspace GC/MS; settings: 1 μL sample in 10 mL vial, 30 minutes room temperature
Protocol: This example illustrates the malodor removal efficacy of exemplary activated alkenes-catalyst systems in the vapor phase. […] A 1 μL sample of each activated alkene-catalyst combination listed in Table 7 is pipeted into an individual 10 mL silanized headspace vial. The vials are sealed and allowed to equilibrate for at least 12 hours. This procedure is repeated 2 times for each sample. After the equilibration period, 1.5 mL of the target malodor standard vapor is injected into each 10 mL vial. For thiol analysis, the vials containing a sample+malodor standard are held at room temperature for 30 minutes. Then, a 1 mL headspace syringe is then used to inject 250 μL of each sample/malodor into a GC/MS split/splitless inlet. A GC pillow is used for the amine analysis to shorten the run times. Samples are then analyzed using a GC/MS with a DB-5, 20 m, 1 μm film thickness column with an MPS-2 autosampler equipment with static headspace function. Data is analyzed by ion extraction on each total ion current (56 for thiol) and the area is used to calculate the percent reduction from the malodor standard for each sample. Here, the results are reported as % reduction, and higher numbers represent higher reduction in butanethiol concentration.

[5] = benchmark values; cited from earlier work

Compound	Butylamine head space concentration normalized to Control composition, Replicate 1 [1]	Butylamine head space concentration normalized to Control composition, Replicate 2 [1]	Butanethiol head space concentration normalized to Control composition, Replicate 1 [2]	Butanethiol head space concentration normalized to Control composition, Replicate 2 [2]	Butanethiol head space concentration normalized to Control, catalyst DBU [3]	Butanethiol head space concentration normalized to Control, catalyst n-hexyl amine [3]	Butanethiol head space concentration normalized to Control, catalyst n-octylamine [3]	Butanethiol head space concentration normalized to Control, No catalyst [3]	% reduction in butanethiol concentration, 1% w/w DBU [4] [%]	% reduction in butanethiol concentration, 1% w/w n-hexylamine [4] [%]	% reduction in butanethiol concentration, 1% w/w n-octylamine [4] [%]	% reduction in butanethiol concentration, No catalyst [4] [%]	ambient temperature water solubility (benchmark) [5] [g/100 ml]
C=CC(=O)N(C)C [N,N Dimethyl Acrylamide]	1.0	1.0	0.8	0.8	0.3	0.6	0.7	0.8	–	–	–	–	–
O=C1C=CC(=O)N1c1ccccc1 [n-phenylmaleimide]	–	–	–	–	–	–	–	–	10	1.5	2.2	12.4	–
OC[C@H]1O[C@@H]2O[C@H]3[C@H](O)[C@@H](O)[C@@H](O[C@H]4[C@H](O)[C@@H](O)[C@@H](O[C@H]5[C@H](O)[C@@H](O)[C@@H](O[C@H]6[C@H](O)[C@@H](O)[C@@H](O[C@H]7[C@H](O)[C@@H](O)[C@@H](O[C@H]8[C@H](O)[C@@H](O)[C@@H](O[C@H]1[C@H](O)[C@H]2O)O[C@@H]8CO)O[C@@H]7CO)O[C@@H]6CO)O[C@@H]5CO)O[C@@H]4CO)O[C@@H]3CO [beta-cyclodextrin]	–	–	–	–	–	–	–	–	–	–	–	–	1.8
CC(C)=CCCC(C)=CC=O [Citral]	0.0	0.0	0.1	0.1	–	–	–	–	–	–	–	–	–
O=C1C=CC(=O)N1C1CCCCC1 [N-Cyclohexylmaleimide]	0.0	0.0	0.0	0.0	–	–	–	–	–	–	–	–	–
N,N dimethylacrylamide-4- methoxy phenol	–	–	–	–	–	–	–	–	95.2	50	22.3	28.2	–
C=CC(=O)OCCCCCC [Hexyl Acrylate]	0.6	0.5	0.1	0.1	0.2	0.02	0	0.1	23.1	11.2	21	31.9	–
C/C=C/C(=O)C1=C(C)C=CCC1(C)C [Damascenone]	1.0	1.1	0.6	0.7	0.8	0.4	0.6	0.6	–	–	–	–	–
CCc1occc(=O)c1O [Ethyl Maltol]	0.0	0.0	0.8	0.9	–	–	–	–	–	–	–	–	–
hydroxypropyl modified beta cyclodextrin	–	–	–	–	–	–	–	–	–	–	–	–	≥ 60
CCOC(=O)/C=C/C(=O)OCC [Diethyl Fumarate]	0.1	0.1	0.4	0.3	0.2	0	0	0.3	63	3.8	11.2	20.7	–
CCOC(=O)/C=C\C(=O)OCC [Diethyl Maleate]	0.5	0.0	0.7	0.6	0.5	0.1	0.04	0.7	44.3	13.3	8.1	24.5	–
C/C=C/C(=O)C1C(C)C=CCC1(C)C (stereo not drawn) [Delta Damascone]	–	–	–	–	–	–	–	–	99.6	30.7	24.4	21	–
